Source: patent US20240287138A1, “CYCLIC PEPTIDES FOR INHIBITING TNF RECEPTOR 1 ACTIVITY” (Merck Sharp & Dohme LLC, priority 2023, published 2024)
Numbered stars: 1 amine (or outer) side, 2 acyl side, 3 side chain; on linkers, the order of the positions; unused ones are H or OH. Bridge positions count the residues as written; N and C are the ends. Square brackets hold non-standard residues; d marks the D form. Peptide text beside a SMILES is read from it. Trp(βS-Me,7-OMe) = COc1cccc2c([C@H](C)[C@H](N)C(=O)O)c[nH]c12; Phe(3R-OH) = O=C([C@@H](N[*:1])[C@H](O[*:3])c1ccccc1)[*:2]; dPro(trans-4-NMe3+) = C[N+](C)(C)[C@@H]1CN[C@@H](C(=O)O)C1; Trp(1-CH2COOH) = N[C@@H](Cc1cn(CC(=O)O)c2ccccc12)C(=O)O; Phe(4-SO2NH2) = N[C@@H](Cc1ccc(S(N)(=O)=O)cc1)C(=O)O; Trp(7-CN) = N#Cc1cccc2c(C[C@H](N)C(=O)O)c[nH]c12; Trp(7-Cl) = N[C@@H](Cc1c[nH]c2c(Cl)cccc12)C(=O)O; X27 = O=C(O)c1ccc(C[C@H](N[*:1])C(=O)[*:2])cc1F; Phe(4-CONH2) = NC(=O)c1ccc(C[C@H](N)C(=O)O)cc1; Phe(4-COOH) = N[C@@H](Cc1ccc(C(=O)O)cc1)C(=O)O; Trp(7-aza) = N[C@@H](Cc1c[nH]c2ncccc12)C(=O)O; dPro(cis-4-NH2) = N[C@H]1CN[C@@H](C(=O)O)C1; Pip(5R-OH) = O=C(O)[C@@H]1CC[C@@H](O)CN1; X1 = O=C([C@@H]1CC[C@H](N[*:1])C1)[*:2]; Pip(4-aza) = O=C(O)[C@@H]1CNCCN1; 4Pal = N[C@@H](Cc1ccncc1)C(=O)O; NMeE = CN[C@@H](CCC(=O)O)C(=O)O; dHyp = O=C(O)[C@H]1C[C@H](O)CN1; αMeS = C[C@](N)(CO)C(=O)O; Nle = CCCC[C@H](N)C(=O)O; Sar = CNCC(=O)O

Assays:
human TNFR2 ECD protein = molecular target: T1, human TNFR2 ECD protein (Homo sapiens, UniProt P20333); assay: SPR off-target binding (selectivity) to human TNFR2 ECD
T1 construct: HRV 3C protease cleavage site (C); 6His (C, cleaved yes); made in house; host or cells: Sf21 insect cells (baculovirus), secreted
T1 sequence (P20333 23-257): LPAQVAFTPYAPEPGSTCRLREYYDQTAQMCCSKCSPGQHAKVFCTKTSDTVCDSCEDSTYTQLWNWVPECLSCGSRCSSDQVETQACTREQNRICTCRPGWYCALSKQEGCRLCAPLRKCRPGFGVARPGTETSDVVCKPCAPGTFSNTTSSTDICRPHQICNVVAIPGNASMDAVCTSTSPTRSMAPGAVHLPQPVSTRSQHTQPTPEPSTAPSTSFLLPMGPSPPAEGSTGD
In short: (§1)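 Biotinylated avi-tagged human TNFR1 or TNFR2 ECD, expressed in Sf21 insect cells, captured on streptavidin SPR chip; peptide analytes run in 10 mM HEPES pH 7.4, 150 mM NaCl, 3 mM EDTA, 0.05% P20, 2% DMSO. kon and koff measured, affinity KA calculated.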

[1] = molecular target: T2, human TNFR1 extracellular domain (ECD) protein (Homo sapiens, UniProt P19438); assay: SPR binding affinity to captured human TNFR1 ECD
T2 construct: HRV 3C protease cleavage site (C); 6His (C, cleaved yes); made in house; host or cells: Sf21 insect cells (baculovirus), secreted
T2 sequence (P19438 30-211): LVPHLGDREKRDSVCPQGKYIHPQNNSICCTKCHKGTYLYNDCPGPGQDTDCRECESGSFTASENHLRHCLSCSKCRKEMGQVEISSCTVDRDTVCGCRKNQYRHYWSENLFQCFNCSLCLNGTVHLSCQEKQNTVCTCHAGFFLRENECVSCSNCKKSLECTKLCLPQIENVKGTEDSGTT
In short: as §1

[2] = molecular target: T3, human soluble TNFR1 (sTNFR1) (Homo sapiens, UniProt P19438); assay: Human sTNFR1-peptide displacement assay (LanthaScreen Eu TR-FRET binding assay)
T3 construct: made in house; host or cells: Sf21 (baculovirus)
T3 sequence (P19438 with tags, fused parts or gaps): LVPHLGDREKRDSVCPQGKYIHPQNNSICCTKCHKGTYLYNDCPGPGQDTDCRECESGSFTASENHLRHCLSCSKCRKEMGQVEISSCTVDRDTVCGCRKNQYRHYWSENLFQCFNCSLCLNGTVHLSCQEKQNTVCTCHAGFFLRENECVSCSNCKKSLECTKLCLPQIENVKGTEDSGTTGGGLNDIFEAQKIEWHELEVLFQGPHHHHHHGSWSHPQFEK
In short: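 Readout is the 665/615 nm TR-FRET ratio (Eu anti-His donor, streptavidin-Alexa647 acceptor), normalized to DMSO and saturating displacer, fit by Morrison-based five-parameter logistic for Kd^app. His-tagged sTNFR1 (1-211) prebound to 100 nM biotinylated peptide SEQ ID NO.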

| SMILES | Kd (human TNFR2 ECD protein) [nM] | Kd [1] [nM] | Kd [2] [nM] | IC50 [2] [nM] |
| --- | --- | --- | --- | --- |
| CCCC[C@@H]1NC(=O)[C@@H]2CC[C@@H](C2)NC(=O)[C@H]([C@@H](C)c2c[nH]c3c(OC)cccc23)NC(=O)CN(C)C(=O)[C@H](Cc2ccc(C(=O)O)cc2)NC(=O)[C@H](Cc2ccc(C(N)=O)cc2)NC(=O)[C@](C)(CO)NC(=O)[C@H](Cc2c[nH]c3c(Cl)cccc23)NC(=O)[C@H](Cc2ccc(C(=O)O)cc2)NC(=O)[C@H](CC(N)=O)NC(=O)[C@H]2C[C@H](O)CN2C(=O)[C@H](Cc2c[nH]c3ccccc23)NC(=O)[C@@H]2CC[C@@H](O)CN2C(=O)[C@H](Cc2ccncc2)NC1=O [SEQ ID NO. 247] (cyclo([4Pal][Pip(5R-OH)]W[dHyp]N[Phe(4-COOH)][Trp(7-Cl)][αMeS][Phe(4-CONH2)][Phe(4-COOH)][Sar][Trp(βS-Me,7-OMe)][X1][Nle])) | > 1000 | 0.07 | 0.09 |  |
| CCCC[C@@H]1NC(=O)[C@@H]2CC[C@@H](C2)NC(=O)[C@H]([C@@H](C)c2c[nH]c3c(OC)cccc23)NC(=O)CN(C)C(=O)[C@H](Cc2ccc(C(=O)O)cc2)NC(=O)[C@H](Cc2ccc(C(N)=O)cc2)NC(=O)[C@](C)(CO)NC(=O)[C@H](Cc2c[nH]c3c(C#N)cccc23)NC(=O)[C@H](Cc2ccc(C(=O)O)c(F)c2)NC(=O)[C@H](CC(N)=O)NC(=O)[C@H]2C[C@H](O)CN2C(=O)[C@H](Cc2c[nH]c3ncccc23)NC(=O)[C@@H]2CC[C@@H](O)CN2C(=O)[C@H](Cc2ccncc2)NC1=O [SEQ ID NO. 8] (cyclo([4Pal][Pip(5R-OH)][Trp(7-aza)][dHyp]N[X27][Trp(7-CN)][αMeS][Phe(4-CONH2)][Phe(4-COOH)][Sar][Trp(βS-Me,7-OMe)][X1][Nle])) | > 1000 | 0.08 | 0.1 |  |
| CCCC[C@@H]1NC(=O)[C@@H]2CC[C@@H](C2)NC(=O)[C@H]([C@@H](C)c2c[nH]c3c(OC)cccc23)NC(=O)CN(C)C(=O)[C@H](Cc2ccc(C(N)=O)cc2)NC(=O)[C@H](Cc2ccc(S(N)(=O)=O)cc2)NC(=O)[C@](C)(CO)NC(=O)[C@H](Cc2c[nH]c3c(C#N)cccc23)NC(=O)[C@H](Cc2ccc(C(=O)O)cc2)NC(=O)[C@H](CC(N)=O)NC(=O)[C@H]2C[C@H]([N+](C)(C)C)CN2C(=O)[C@H](Cc2cn(CC(=O)O)c3ccccc23)NC(=O)[C@@H]2CC[C@@H](O)CN2C(=O)[C@H](Cc2ccncc2)NC1=O [SEQ ID NO. 9] (cyclo([4Pal][Pip(5R-OH)][Trp(1-CH2COOH)][dPro(trans-4-NMe3+)]N[Phe(4-COOH)][Trp(7-CN)][αMeS][Phe(4-SO2NH2)][Phe(4-CONH2)][Sar][Trp(βS-Me,7-OMe)][X1][Nle])) | > 1000 | 0.1 | 0.05 |  |
| CCCC[C@@H]1NC(=O)CSC[C@@H](C(N)=O)NC(=O)[C@H]([C@@H](C)c2c[nH]c3c(OC)cccc23)NC(=O)CN(C)C(=O)[C@H](Cc2ccc(O)cc2)NC(=O)[C@H](Cc2ccc(C(N)=O)cc2)NC(=O)[C@](C)(CO)NC(=O)[C@H](Cc2c[nH]c3c(Cl)cccc23)NC(=O)[C@H](Cc2ccncc2)NC(=O)[C@H](CC(N)=O)NC(=O)[C@H]2C[C@@H](N)CN2C(=O)[C@H](Cc2c[nH]c3ncccc23)NC(=O)[C@@H]2CNCCN2C(=O)[C@H](Cc2ccncc2)NC1=O [SEQ ID NO. 219] ({CH2CO}-[Nle][4Pal][Pip(4-aza)][Trp(7-aza)][dPro(cis-4-NH2)]N[4Pal][Trp(7-Cl)][αMeS][Phe(4-CONH2)]Y[Sar][Trp(βS-Me,7-OMe)]C-NH2; thioether N-14) | > 1000 | 0.1 | 0.15 | 0.3 |
| CCCC[C@@H]1NC(=O)CSC[C@@H](C(N)=O)NC(=O)[C@H]([C@@H](C)c2c[nH]c3c(OC)cccc23)NC(=O)CN(C)C(=O)[C@H](Cc2ccc(O)cc2)NC(=O)[C@H](Cc2ccc(C(=O)O)cc2)NC(=O)[C@](C)(CO)NC(=O)[C@H](Cc2c[nH]c3c(Cl)cccc23)NC(=O)[C@H](Cc2ccncc2)NC(=O)[C@H](CC(N)=O)NC(=O)[C@H](CCC(=O)O)N(C)C(=O)[C@H](Cc2c[nH]c3ncccc23)NC(=O)[C@H](CO)NC(=O)[C@H]([C@H](O)c2ccccc2)NC1=O [SEQ ID NO. 259] ({CH2CO}-[Nle][Phe(3R-OH)]S[Trp(7-aza)][NMeE]N[4Pal][Trp(7-Cl)][αMeS][Phe(4-COOH)]Y[Sar][Trp(βS-Me,7-OMe)]C-NH2; thioether N-14) | > 1000 | 0.15 | 0.22 |  |
